Test results taken from ChEMBL document CHEMBL4732231, “Combretastatin A-4 sulfur-containing heterocyclic derivatives: Synthesis, antiproliferative activities and molecular docking studies” (Eur J Med Chem, 2021).
Calls of active or inactive are those of the source. The calls are words filed in the database; no cut-off is given here.

What was measured:
Tubulin (Homo sapiens) [1] = target: T1, Tubulin (Homo sapiens) (UniProt P68371+Q9H4B7+P0DPH7+P68366+Q13509+Q71U36+P04350+Q3ZCM7+P07437+P68363+Q9BQE3+Q6PEY2+Q13885+Q9BVA1+Q9BUF5); experiment: Inhibition of tubulin polymerization in human HeLa cells assessed as dynamic tyrosinated microtubules content at 1 uM by incubated for 2 hrs by immunofluorescence staining based assay; type: cell-based
Tubulin (Homo sapiens) [2] = target: T1, Tubulin (Homo sapiens); experiment: Inhibition of tubulin polymerization in human HeLa cells assessed as dynamic tyrosinated microtubules content at 2 uM by incubated for 2 hrs by immunofluorescence staining based assay; type: cell-based
MIA PaCa-2 = experiment: Antiproliferative activity against human MIA PaCa-2 cells assessed as reduction in cell viability incubated for 72 hrs by MTT assay; type: functional, cell-based; conditions: MIA PaCa-2, 72 h
MES-SA/Dx5 = experiment: Antiproliferative activity against multidrug-resistant human MES-SA/Dx5 cells assessed as reduction in cell viability incubated for 72 hrs by prestoblue dye based assay; type: functional; conditions: MES-SA/Dx5, 72 h
RL [3] = experiment: Antiproliferative activity against human RL cells assessed as reduction in cell viability incubated for 72 hrs by MTT assay; type: functional, cell-based
A2780 = experiment: Antiproliferative activity against human A2780 cells assessed as reduction in cell viability incubated for 72 hrs by MTT assay; type: functional, cell-based; conditions: A2780, 72 h
Tubulin (Homo sapiens) [4] = target: T1, Tubulin (Homo sapiens); experiment: Inhibition of tubulin polymerization in human HeLa cells assessed as dynamic tyrosinated microtubules content at 14 uM by incubated for 2 hrs by immunofluorescence staining based assay; type: cell-based
Tubulin = experiment: Inhibition of tubulin polymerization in human HeLa cells assessed as dynamic tyrosinated microtubules content by incubated for 2 hrs by immunofluorescence staining based assay; type: cell-based
RL [5] = experiment: Induction of cell cycle arrest in human RL cells assessed as effect on cell cycle distribution at 1 nM incubated for 48 hrs by PI staining based flow cytometry analysis (reference value: 8 %); type: functional
RL [6] = experiment: Induction of cell cycle arrest in human RL cells assessed as increase in accumulation in G2/M phase at 10 nM incubated for 24 hrs by PI staining based flow cytometry analysis (reference value: 23.3 %); type: functional
RL [7] = experiment: Induction of cell cycle arrest in human RL cells assessed as increase in accumulation in subG0/G1 phase at 10 nM incubated for 48 hrs by PI staining based flow cytometry analysis (reference value: 8 %); type: functional
RL [8] = experiment: Induction of cell cycle arrest in human RL cells assessed as increase in accumulation in subG0/G1 phase at 10 nM incubated for 24 hrs by PI staining based flow cytometry analysis (reference value: 4.5 %); type: functional
RL [9] = experiment: Induction of cell death in human RL cells assessed as cell gating level at 1 to 10 nM measured upto 48 hrs by PI staining based flow cytometry analysis (reference value: 80 to 85 %); type: functional; conditions: dose 1-10 nM, time hrs <=48
RL [10] = experiment: Induction of cell cycle arrest in human RL cells assessed as increase in accumulation in subG0/G1 phase at 1 nM incubated for 48 hrs by PI staining based flow cytometry analysis (reference value: 8 %); type: functional

Row | SMILES | IC50 (MIA PaCa-2) [nM] | IC50 (MES-SA/Dx5) [nM] | IC50 (RL [3]) [nM] | IC50 (A2780) [nM] | EC50 (Tubulin) [nM] | further results
1 | COc1ccc2sc(/C=C\c3cc(OC)c(OC)c(OC)c3)cc2c1 | – | – | – | – | – | inhibition (Tubulin (Homo sapiens) [1]): 14%; inhibition (Tubulin (Homo sapiens) [2]): 62%
2 | COc1cc2c(c(OC)c1OC)-c1ccc(OC)c(=O)cc1[C@@H](NC(C)=O)CC2 [COLCHICINE] | 6.1 | 757 | 4.4 | 14 | – | –
3 | COc1cc(C(=O)C(=O)c2cc3ccccc3s2)cc(OC)c1OC | – | – | – | – | – | inhibition (Tubulin (Homo sapiens) [4]): 35%
4 | COc1ccc(/C=C\c2cc(OC)c(OC)c(OC)c2)s1 | – | 75 | – | – | – | –
5 | COc1cc(/C=C\c2cc3cc(F)ccc3s2)cc(OC)c1OC | 200 | – | 38 | 200 | 523 | –
6 | COc1csc(/C=C\c2cc(OC)c(OC)c(OC)c2)c1 | 14 | 27 | 11 | 13 | – | Activity (RL [5]): inactive; Activity (RL [6]): 48.8%; Activity (RL [7]): 23.4%; Activity (RL [8]): 15.6%; Activity (RL [9]): 45%
7 | COc1ccsc1/C=C\c1cc(OC)c(OC)c(OC)c1 | > 1000 | – | > 1000 | > 1000 | > 10000 | –
8 | COc1cc(/C=C\c2cc3cc(O)ccc3s2)cc(OC)c1OC | – | – | – | – | 717 | –
9 | COc1cc(/C=C\c2csc3ccccc23)cc(OC)c1OC | – | 288 | – | – | – | –
10 | COc1ccc(/C=C\c2cc(OC)c(OC)c(OC)c2)cc1O [COMBRETASTATIN A4] | 2.1 | 3 | 1.4 | 2.5 | – | Activity (RL [10]): 30.1%; Activity (RL [7]): 34.9%; Activity (RL [8]): 19.3%; Activity (RL [9]): 45%
11 | COc1cc(/C=C\c2sc3ccccc3c2C)cc(OC)c1OC | 120 | – | 61 | 360 | 555 | –
12 | C=C(c1cc(OC)c(OC)c(OC)c1)c1cc2ccccc2s1 | – | 150 | – | – | – | –
13 | COc1cc(/C=C\c2cc3ccccc3s2)cc(OC)c1OC | 7.8 | 19 | 7.6 | 7.9 | – | –
